These results are taken from ChEMBL document CHEMBL1134080, “Indazolylamino quinazolines and pyridopyrimidines as inhibitors of the EGFr and C-erbB-2” (Bioorg Med Chem Lett, 2001).

Series [1] has as its target Receptor tyrosine-protein kinase erbB-2 (Rattus norvegicus, UniProt P06494). As to the kind of experiment: Inhibition of rat Receptor protein-tyrosine kinase erbB2.
The target in series [2] is Epidermal growth factor receptor and ErbB2 (HER1 and HER2) (Homo sapiens) (UniProt P04626+P00533). In words: Selectivity for EGF receptor and c-erbB-2. Format: protein assay.
Series [3] is described as follows: Half-life was measured in mouse. To be noted: in vivo. Format: ADME, organism-based.
Series [4] in a line: Bioavailability in dog. To be noted: in vivo. The format is ADME, organism-based, Canis lupus familiaris.
A short description of series [5]: Pharmacokinetic property (Plasma clearance) was measured in rat. The format is ADME, organism-based.
Series [6] is described as follows: Bioavailability was measured in rat. The format is ADME, organism-based. The conditions noted are these: in vivo.
Series [7] is described as follows: Pharmacokinetic property (Plasma clearance) was measured in dog. The format is ADME, organism-based, Canis lupus familiaris.
Series [8] in a line: Pharmacokinetic property (Plasma clearance) was measured in mouse. Format: ADME, organism-based.
Series [9] is described as follows: Bioavailability was measured in mouse. The format is ADME, organism-based. To be noted: in vivo.
Series [10] in a line: Half-life was measured in dog. The format is ADME, organism-based, Canis lupus familiaris. To be noted: in vivo.
The target of series [11] is Cyclin-dependent kinase 1 (Homo sapiens, UniProt P06493). In words: Inhibition of Cyclin-dependent kinase 1.
For series [12], the target named is Cyclin-dependent kinase 2 (Homo sapiens, UniProt P24941). In words: Inhibition of Cyclin-dependent kinase 2.
In another series the test system is HB4a. As to the kind of experiment: Inhibition of RAS overexpressing HB4a.R4.2 cell proliferation. Format: functional, cell-based. The conditions noted are these: Homo sapiens.
For a further series, the system named is MRC5. As to the kind of experiment: Inhibition of MRC5 cell proliferation. The format is functional, cell-based. The conditions noted are these: Homo sapiens.
Series [13] has as its target Dual specificity mitogen-activated protein kinase kinase; MEK1/2 (Homo sapiens, UniProt P36507+Q02750). In words: Inhibition of MAPK kinase (MEK). Format: protein assay.
Series [14] deals with RAF proto-oncogene serine/threonine-protein kinase (Homo sapiens, UniProt P04049). In words: Inhibition of Raf kinase.
The target of series [15] is Proto-oncogene tyrosine-protein kinase Src (Homo sapiens, UniProt P12931). In words: Inhibition of Src kinase.
Series [16] is described as follows: Half-life was measured in rat. The format is ADME, organism-based. To be noted: in vivo.

Sequence of Receptor tyrosine-protein kinase erbB-2 (P06494 whole entry): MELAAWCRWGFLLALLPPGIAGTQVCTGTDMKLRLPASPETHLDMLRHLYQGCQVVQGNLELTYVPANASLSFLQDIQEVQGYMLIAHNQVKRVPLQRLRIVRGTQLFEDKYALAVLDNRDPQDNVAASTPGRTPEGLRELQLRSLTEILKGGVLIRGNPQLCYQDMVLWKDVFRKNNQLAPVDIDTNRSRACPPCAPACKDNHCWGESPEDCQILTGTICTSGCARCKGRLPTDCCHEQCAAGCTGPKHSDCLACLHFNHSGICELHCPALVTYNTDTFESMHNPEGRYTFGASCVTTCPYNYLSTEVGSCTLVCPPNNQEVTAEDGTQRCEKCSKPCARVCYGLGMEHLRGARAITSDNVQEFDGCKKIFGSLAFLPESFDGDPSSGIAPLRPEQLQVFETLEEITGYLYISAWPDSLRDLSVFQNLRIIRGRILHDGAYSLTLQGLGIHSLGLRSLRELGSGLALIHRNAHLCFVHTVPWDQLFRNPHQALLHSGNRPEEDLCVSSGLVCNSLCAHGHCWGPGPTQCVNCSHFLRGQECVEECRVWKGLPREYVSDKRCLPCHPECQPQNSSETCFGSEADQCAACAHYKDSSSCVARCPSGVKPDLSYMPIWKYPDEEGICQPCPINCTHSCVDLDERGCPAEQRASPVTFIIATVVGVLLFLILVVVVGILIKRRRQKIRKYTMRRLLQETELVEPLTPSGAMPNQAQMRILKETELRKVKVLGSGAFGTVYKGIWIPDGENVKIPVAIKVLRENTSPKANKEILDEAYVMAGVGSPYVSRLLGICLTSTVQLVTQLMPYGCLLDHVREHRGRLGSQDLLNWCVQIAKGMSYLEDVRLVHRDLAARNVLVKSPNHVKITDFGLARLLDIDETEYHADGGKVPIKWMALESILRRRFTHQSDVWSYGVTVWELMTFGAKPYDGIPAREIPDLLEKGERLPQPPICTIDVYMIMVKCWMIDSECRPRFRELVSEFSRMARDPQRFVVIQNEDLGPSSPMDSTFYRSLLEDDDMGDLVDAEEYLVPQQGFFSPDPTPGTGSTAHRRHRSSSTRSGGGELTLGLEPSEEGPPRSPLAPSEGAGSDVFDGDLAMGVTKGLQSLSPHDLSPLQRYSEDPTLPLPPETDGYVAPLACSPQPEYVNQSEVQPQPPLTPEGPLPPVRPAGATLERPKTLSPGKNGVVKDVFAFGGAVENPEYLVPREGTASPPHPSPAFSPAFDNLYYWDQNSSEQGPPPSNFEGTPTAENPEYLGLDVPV
Sequence of Cyclin-dependent kinase 1 (P06493 whole entry): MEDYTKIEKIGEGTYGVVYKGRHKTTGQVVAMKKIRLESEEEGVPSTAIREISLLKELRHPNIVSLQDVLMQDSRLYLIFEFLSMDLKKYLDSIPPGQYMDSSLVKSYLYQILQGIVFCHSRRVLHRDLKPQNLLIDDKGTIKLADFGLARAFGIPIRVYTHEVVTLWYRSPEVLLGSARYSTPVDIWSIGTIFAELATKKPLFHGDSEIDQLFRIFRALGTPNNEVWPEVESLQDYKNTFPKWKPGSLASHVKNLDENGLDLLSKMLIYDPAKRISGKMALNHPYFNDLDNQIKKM
Sequence of RAF proto-oncogene serine/threonine-protein kinase (P04049 whole entry): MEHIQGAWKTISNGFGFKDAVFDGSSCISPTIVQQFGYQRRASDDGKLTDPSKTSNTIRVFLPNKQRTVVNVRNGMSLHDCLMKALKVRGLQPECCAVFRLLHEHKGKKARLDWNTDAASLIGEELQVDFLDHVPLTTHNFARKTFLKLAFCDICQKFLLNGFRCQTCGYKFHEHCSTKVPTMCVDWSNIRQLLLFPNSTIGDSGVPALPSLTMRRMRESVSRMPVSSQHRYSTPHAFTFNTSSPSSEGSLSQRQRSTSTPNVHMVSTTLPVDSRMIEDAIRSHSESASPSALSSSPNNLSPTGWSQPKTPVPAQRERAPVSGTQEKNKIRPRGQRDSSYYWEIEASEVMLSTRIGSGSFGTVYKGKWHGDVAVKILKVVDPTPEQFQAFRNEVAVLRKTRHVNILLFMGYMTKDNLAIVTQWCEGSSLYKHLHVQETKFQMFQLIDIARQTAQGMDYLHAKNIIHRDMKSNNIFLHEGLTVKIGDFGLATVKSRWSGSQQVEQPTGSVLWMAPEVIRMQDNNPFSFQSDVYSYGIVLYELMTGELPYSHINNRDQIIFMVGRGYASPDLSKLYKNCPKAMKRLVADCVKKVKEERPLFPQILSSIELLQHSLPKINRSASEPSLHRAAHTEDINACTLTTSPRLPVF
Sequence of Proto-oncogene tyrosine-protein kinase Src (P12931 2-536 limits assumed): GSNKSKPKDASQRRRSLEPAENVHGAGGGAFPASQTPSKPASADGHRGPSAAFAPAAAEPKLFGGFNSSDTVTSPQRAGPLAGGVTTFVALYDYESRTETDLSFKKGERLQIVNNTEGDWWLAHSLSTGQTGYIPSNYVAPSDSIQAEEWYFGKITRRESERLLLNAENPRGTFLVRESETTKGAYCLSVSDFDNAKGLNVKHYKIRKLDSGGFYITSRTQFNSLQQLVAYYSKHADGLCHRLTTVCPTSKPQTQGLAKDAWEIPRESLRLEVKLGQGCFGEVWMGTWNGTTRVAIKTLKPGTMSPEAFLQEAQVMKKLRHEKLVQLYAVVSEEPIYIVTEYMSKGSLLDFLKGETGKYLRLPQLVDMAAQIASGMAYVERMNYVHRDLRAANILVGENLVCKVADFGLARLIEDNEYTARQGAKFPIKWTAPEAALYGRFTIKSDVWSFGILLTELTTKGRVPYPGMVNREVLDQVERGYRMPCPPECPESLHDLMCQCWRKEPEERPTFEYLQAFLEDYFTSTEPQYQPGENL

As a reminder, the IC50 is the concentration at which inhibition is half-maximal. A low value points to greater potency in that assay. Regarding `c1ccc(Cc2nc3ccc(Nc4ncnc5ccccc45)cc3[nH]2)cc1`, in series [1], the IC50 came to 560 nM. This compound also registered a Selectivity in series [2] of 36.

For the compound `Nc1cc2c(Nc3ccc4c(ccn4Cc4ccccc4)c3)ncnc2cn1`, the IC50 in [1] came to 26 nM.

Turning to `COc1cc2ncnc(Nc3ccc4c(ccn4Cc4ccccc4)c3)c2cc1OC`, half-maximal inhibition in [1] (IC50) required 49 nM. Further, the Selectivity in [2] was 12.5.

As for `COc1cc2ncnc(Nc3ccc4nn(Cc5ccccc5)cc4c3)c2cc1OC`, in series [1], the IC50 is 290 nM. For the same compound, the Selectivity in series [2] is 8.9.

`c1ccc(Cn2cnc3ccc(Nc4ncnc5ccccc45)cc32)cc1` displayed an IC50 in [1] of 4400 nM. The same compound displayed a Selectivity in series [2] of 27.

For the compound `c1ccc(Cn2ncc3cc(Nc4ncnc5ccccc45)ccc32)cc1`, the IC50 in [1] was found to be 10 nM.

Take `Nc1cc2c(Nc3ccc4c(cnn4Cc4ccccc4)c3)ncnc2cn1`: half-maximal inhibition in series [1] (IC50) required 27 nM. In [2], this compound had a Selectivity of over 5.6.

A word on the half-life: it is the time in which the quantity being followed falls by half. Lower therefore signals rapid decline. By bioavailability is commonly meant dose-corrected exposure relative to a reference, in per cent. What is called clearance is the rate of elimination divided by the concentration. Higher therefore signals efficient removal. For the compound `CN(C)c1cc2c(Nc3ccc4c(cnn4Cc4ccccc4)c3)ncnc2cn1` [GW282974X], the values for the half-life in series [3], in series [10] and in series [16] were 20 min, 44 min and 18 min, respectively. Also, the bioavailability is 82% in series [4], 24% in series [6] and over 23% in series [9]. Moreover, the clearance in series [5] is 19 mL/min/kg; in series [7], 34 mL/min/kg; in series [8], over 27 mL/min/kg. Further, the IC50 in series [11] was over 8000 nM; in series [12], over 8000 nM; in the series with HB4a it was 30000 nM; in the series with MRC5, over 50000 nM; in series [13] it was 9700 nM; in [14], 49000 nM. Further, the IC50 in series [1] is 18 nM; in series [15], over 50000 nM.

`COc1cc2ncnc(Nc3ccc4nc(Cc5ccccc5)[nH]c4c3)c2cc1OC` gave an IC50 in series [1] of 10 nM. Further, in series [2], the Selectivity worked out at 19.

Compound `c1ccc(Cn2ccc3cc(Nc4ncnc5ccccc45)ccc32)cc1` returned an IC50 in series [1] of 90 nM.

The compound `c1ccc(Cn2cnc3cc(Nc4ncnc5ccccc45)ccc32)cc1` came in with an IC50 in series [1] of 6600 nM. In [2], this compound showed a Selectivity of 39.

On to `Nc1cc2c(Nc3ccc4[nH]c(Cc5ccccc5)nc4c3)ncnc2cn1`, for which the IC50 in series [1] was 49 nM. In [2], this compound had a Selectivity of 18.5.

`COc1cc2ncnc(Nc3ccc4c(cnn4Cc4ccccc4)c3)c2cc1OC` came in with an IC50 in series [1] of 1 nM. Also, the Selectivity in [2] is over 5.6.
